Laboratory results reported in US20070166317A1, “Microparticles” (priority 2003, published 2007).

Experiments:
CHO cells = assay: Cellular association of peptide modified latex microparticles, confocal microscopy, CHO cells; assay type: cell-based, Chinese Hamster; conditions: 3 hours at 37° C., 10 ng peptide/μg Sigma carboxylate modified latex, 0.15 μg latex/μL of media, FIG. 4
Method: (§1) Latex (50 to 100 μL) was added to PBS (890 to 945 μL) followed by peptide solution (5 to 10 μL) and the resultant 1 mL solution mixed. The material was left to stand at room temperature for 2 hours and then dialysed over night against 2 L of PBS in the dark at 4° C. The particles were then recovered stored at 4° C. in the dark and used without further treatment.
(§2) CHO stock culture was grown in Ham's F12 media supplemented with 10% foetal bovine serum, glutamine (2 mM), fungizone (50 mg/ml) and pen-strep (0.1 mg/ml). Cells were seeded at 1 to 2×10^4 cell/cm^2 using 0.25% trypsin-EDTA and maintained in a humidified 5% CO2 atmosphere, at 37° C. and sub-cultured twice a week.
(§3) Prior (48 hr) to an experiment CHO or HFFF2 cells were plated at 2×10^4/cm^2 in an 8 well chamber slide, 0.7 cm^2 and 0.2 mL/chamber. One day before the experiment, media was replaced with a similar media but containing no lipids. On the day of the experiment, the cells for 4° C. incubation were chilled for 15 minutes prior to any additions. The wells were washed with 0.1 mL of phosphate buffered saline (PBS) and the synthetic LDL system in media added. The slides were then incubated for 1 or 3 hours at either 4° C. or 37° C. the latter in a humidified 5% CO2 atmosphere. […] The lens employed was ×20 PA with a numerical aperture of 0.75 and the data analysed using “Laser-sharp” software (Bio-Rad).

LDL receptor [1] = molecular target: T1, LDL receptor (Homo sapiens, UniProt P01130); assay: Effect of anti-LDL receptor antibody on cellular association of peptide modified latex, confocal microscopy, HFFF-2 cells; assay type: cell-based; conditions: 3 hours at 37° C., antibody 8 μg/mL, peptide on Fluoresbrite latex, 0.15 μg latex/μL, FIG. 5
T1 construct: endogenous in cells; host or cells: HFFF-2 fibroblast cells (ECACC 86031405)
Method: as §1
as §2, with “HFFF2 stock” for “CHO stock”, “in Dulbecco's modified Eagle's” for “in Ham's F12”, “10% v/v” for “10%”, “at 2” for “at 1”, “to 3×10^4” for “to 2×10^4”
as §3

LDL receptor [2] = molecular target: T1, LDL receptor; assay: Effect of anti-LDL receptor antibody on cellular association of peptide modified latex, normal fluorescent microscopy, HFFF-2 cells; assay type: cell-based; conditions: 3 hours at 37° C., antibody 8 μg/mL, peptide on Sigma carboxylate modified latex, 0.15 μg latex/μL, FIG. 6
Method: as §1
as §2, with “HFFF2 stock” for “CHO stock”, “in Dulbecco's modified Eagle's” for “in Ham's F12”, “10% v/v” for “10%”, “at 2” for “at 1”, “to 3×10^4” for “to 2×10^4”
Prior (48 hr) to an experiment CHO or HFFF2 cells were plated at 2×10^4/cm^2 in an 8 well chamber slide, 0.7 cm^2 and 0.2 mL/chamber. One day before the experiment, media was replaced with a similar media but containing no lipids. On the date of the experiment, the cells for 4° C. incubation were chilled for 15 minutes prior to any additions. The wells were washed with 0.1 mL of phosphate buffered saline (PBS) and the synthetic LDL microparticle system, in media, added. The slides were then incubated for 1 or 3 hours at either 4° C. or 37° C. the latter in a humidified 5% CO2 atmosphere. […]

T1 sequence (P01130 22-860): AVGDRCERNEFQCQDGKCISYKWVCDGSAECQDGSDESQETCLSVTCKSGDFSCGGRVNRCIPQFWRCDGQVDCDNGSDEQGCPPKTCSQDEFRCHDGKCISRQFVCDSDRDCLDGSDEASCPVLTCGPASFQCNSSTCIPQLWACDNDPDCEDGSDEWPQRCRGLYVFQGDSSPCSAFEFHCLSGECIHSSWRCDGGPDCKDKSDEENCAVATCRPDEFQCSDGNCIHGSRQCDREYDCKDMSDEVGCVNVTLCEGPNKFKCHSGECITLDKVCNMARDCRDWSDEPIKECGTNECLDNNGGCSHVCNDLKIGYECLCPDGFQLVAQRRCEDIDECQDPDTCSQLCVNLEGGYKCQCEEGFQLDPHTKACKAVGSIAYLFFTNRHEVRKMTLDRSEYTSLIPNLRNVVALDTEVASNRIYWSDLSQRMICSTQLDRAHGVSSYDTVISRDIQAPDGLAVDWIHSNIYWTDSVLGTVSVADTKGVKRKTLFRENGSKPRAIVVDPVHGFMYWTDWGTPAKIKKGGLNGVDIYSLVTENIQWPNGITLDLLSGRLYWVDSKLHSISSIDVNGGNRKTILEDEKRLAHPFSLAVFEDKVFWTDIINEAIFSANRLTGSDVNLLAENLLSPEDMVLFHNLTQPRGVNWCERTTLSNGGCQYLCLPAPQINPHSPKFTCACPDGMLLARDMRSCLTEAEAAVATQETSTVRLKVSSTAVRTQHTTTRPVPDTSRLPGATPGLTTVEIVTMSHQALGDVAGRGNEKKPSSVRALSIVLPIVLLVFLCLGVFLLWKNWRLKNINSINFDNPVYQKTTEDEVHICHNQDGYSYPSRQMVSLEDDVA

| reduction of cellular association by anti-LDL receptor antibody (confocal microscopy) (LDL receptor [1]) | Substance | cellular association of peptide modified latex (rank order between peptides, fluorescence) (CHO cells) | reduction of cellular association by anti-LDL receptor antibody (normal fluorescent microscopy) (LDL receptor [2]) |
| --- | --- | --- | --- |
| the reduction is not as great | peptide 4: Pyrene Butyric Acid-Lys-Leu-Glu-Gly-Thr-Thr-Arg-Leu-Thr-Arg-Lys-Arg-Gly-Leu-Lys-Leu-Ala-Thr-Ala-Leu-Ser-Leu-Phe-Leu-Phe-Cholesterol ({pyrene butyric acid}-KLEGTTRLTRKRGLKLATALSLFLF-cholesterol) | increased cellular association for peptide 4 followed by peptide 3 and then peptide 1 | – |
| – | peptide 3: Retinoic Acid-Tyr-Lys-Leu-Glu-Gly-Thr-Thr-Arg-Leu-Thr-Arg-Lys-Arg-Gly-Leu-Lys-Leu-Ala-Thr-Ala-Leu-Ser-Cholesterol ({retinoic acid}-YKLEGTTRLTRKRGLKLATALS-cholesterol) | increased cellular association for peptide 4 followed by peptide 3 and then peptide 1 | the reduction due to the presence of the antibody is clearly visible |
